Measurements published in patent publication US4492694A, “Indolylglycyl cephalosporin derivatives” (Eli Lilly and Company, priority 1983, dated 1985).
Converted amounts (≈) assume the structure as drawn. Structures can show the parent of a compound that is named as a salt. Where two headings read alike, the source gives them in different places.

Legend:
Staph. aureus = assay: Agar dilution MIC; assay type: cell-based; conditions: Staphylococcus aureus
Enterobacter = assay: Agar dilution MIC; assay type: cell-based; conditions: for MIC: Enterobacter
Salmonella = assay: Agar dilution MIC; assay type: cell-based
From the text: (§1) A typical and preferred compound provided by this invention is 7-(3-indolylglycylamido)-3-methyl-3-cephem-4-carboxylic acid, the compound illustrated in Example 2. The antibacterial activity of this compound and others of the invention has been determined in standard in vitro agar dilution assays against a variety of gram positive and gram negative microorganisms. The following Table presents typical minimum inhibitory concentrations (MIC's) in μg/ml for several compounds of the invention when evaluated against the indicated microorganisms. MIC's for several known compounds are also presented for comparison.

Klebsiella = assay: Agar dilution MIC; assay type: cell-based
[1] = Recovery in urine and bile after subcutaneous dose; assay type: in vivo; conditions: rat, sc, rats, 20 mg/kg
Experimental: (§2) For example, when 7-(3-indolylglycylamido)-3-methyl-3-cephem-4-carboxylic acid was administered to rats at an intravenous dose of 20 mg/kg, the plasma concentration after one hour was 15.0 μg/ml, and after four hours, 6.0 μg/ml. About 60% of the above compound was recovered in the urine of rats following a 20 mg/kg subcutaneous dose. Less than 5% was recovered from the bile.

E. coli = assay: Agar dilution MIC; assay type: cell-based; conditions: Escherichia coli
Staph. epi = assay: Agar dilution MIC; assay type: cell-based; conditions: for Agar Dilution MIC: strain EPI2
From the text: as §1

Strep PN = assay: Agar dilution MIC; assay type: cell-based; conditions: strain PARK
Strep. D = assay: Agar dilution MIC; assay type: cell-based; conditions: read-out: Agar Dilution MIC
[2] = Pharmacokinetics, plasma concentration after intravenous dose; assay type: in vivo; conditions: rat, rats, 20 mg/kg
Experimental: as §2

Strep. A = assay: Agar dilution MIC; assay type: cell-based; conditions: strain C203
Shig. sonn. = assay: Agar dilution MIC; assay type: cell-based; conditions: strain N9
[3] = strain V41, read-out: Agar Dilution MIC
[4] = strain X68, read-out: Agar Dilution MIC
[5] = read-out: Agar Dilution MIC, strain X514
[6] = strain 1335, read-out: Agar Dilution MIC
[7] = strain X1.1, read-out: Agar Dilution MIC
[8] = read-out: Agar Dilution MIC, strain S13E
[9] = strain X400, read-out: Agar Dilution MIC
[10] = strain X26, read-out: Agar Dilution MIC
[11] = strain EPI1, read-out: Agar Dilution MIC

Compound	MIC (Staph. aureus; read-out: Agar Dilution MIC)	MIC (Staph. aureus; [3])	MIC (Enterobacter; [4])	MIC (Salmonella; [5])	MIC (Salmonella; [6])	MIC (Staph. aureus; [7])	MIC (Staph. aureus; [8])	MIC (Staph. aureus; [9])	MIC (Klebsiella; [10])	MIC (E. coli; strain EC14)	MIC (E. coli; strain N10)	MIC (E. coli; strain TEM)	Agar Dilution MIC (Enterobacter; strain EB17)	MIC (Staph. epi; [11])	Agar Dilution MIC (Staph. epi)	MIC (Strep PN)	MIC (Strep. D; strain 9960)	MIC (Strep. A)	MIC (Klebsiella; [4])	Agar Dilution MIC (Enterobacter; strain C32)	also measured
CC1(C)S[C@@H]2[C@H](NC(=O)[C@H](N)c3ccccc3)C(=O)N2[C@H]1C(=O)O [Ampicillin, reference compound]	0.125 µg/mL (≈ 0.358 µM)	8 µg/mL (≈ 22.9 µM)	8 µg/mL (≈ 22.9 µM)	1 µg/mL (≈ 2.86 µM)	4 µg/mL (≈ 11.4 µM)																
CC1=C(C(=O)O)N2C(=O)[C@@H](NC(=O)[C@H](N)c3ccccc3)[C@H]2SC1 [Cephalexin, reference compound]			0.03 µg/mL (≈ 0.0864 µM)	0.6 µg/mL (≈ 1.73 µM)	0.25 µg/mL (≈ 0.72 µM)	2 µg/mL (≈ 5.76 µM)															MIC (Klebsiella; read-out: Agar Dilution MIC): 2 µg/mL (≈ 5.76 µM); MIC (Enterobacter; read-out: Agar Dilution MIC, strain C32): 0.125 µg/mL (≈ 0.36 µM); MIC (Enterobacter; read-out: Agar Dilution MIC, strain EB17): 0.06 µg/mL (≈ 0.173 µM)
CC1=C(C(=O)O)N2C(=O)[C@@H](NC(=O)[C@H](N)c3c[nH]c4ccccc34)C2SC1 (stereo partly drawn) [Ex. 2, D-7-(3-Indolylglycylamido)-3-methyl-3-cephem-4-carboxylic acid trifluoroacetate]		8 µg/mL		32 µg/mL	128 µg/mL	4 µg/mL	32 µg/mL	64 µg/mL	16 µg/mL	32 µg/mL	32 µg/mL	16 µg/mL	> 128 µg/mL	16 µg/mL	16 µg/mL	0.5 µg/mL	16 µg/mL	0.25 µg/mL			dose excreted ([1]; bile, read-out: recovered from the bile): < 5%; dose excreted ([1]; urine, read-out: recovered in the urine): ~60%; MIC (Enterobacter; read-out: Agar Dilution MIC, strain X68): 32 µg/mL; MIC (Enterobacter; strain C32, read-out: Agar Dilution MIC): > 128 µg/mL; MIC (Strep. D): 32 µg/mL; concentration at 4 h ([2]; four hours): 6000 ng/mL; concentration at 1 h ([2]; one hour): 15000 ng/mL
N[C@@H](C(=O)N[C@@H]1C(=O)N2C(C(=O)O)=C(Cl)CSC12)c1c[nH]c2ccccc12 (stereo partly drawn) [Ex. 3, D-7-(3-indolylglycylamido)-3-chloro-3-cephem-4-carboxylic acid trifluoroacetate]	32 µg/mL		> 128 µg/mL	16 µg/mL	16 µg/mL	4 µg/mL	8 µg/mL	64 µg/mL	4 µg/mL	8 µg/mL	16 µg/mL	16 µg/mL	> 128 µg/mL	16 µg/mL		0.25 µg/mL	16 µg/mL	0.5 µg/mL	16 µg/mL	> 128 µg/mL	MIC (Staph. epi; read-out: Agar Dilution MIC, strain EPI2): 32 µg/mL; MIC (Strep. D; strain X66): 16 µg/mL
COC1=C(C(=O)O)N2C(=O)[C@@H](NC(=O)[C@H](N)c3c[nH]c4ccccc34)C2SC1 (stereo partly drawn) [Ex. 4, D-7-(3-Indolylglycylamido)-3-methoxy-3-cephem-4-carboxylic acid]	32 µg/mL (≈ 79.5 µM)		> 128 µg/mL	16 µg/mL (≈ 39.8 µM)	32 µg/mL (≈ 79.5 µM)	4 µg/mL (≈ 9.94 µM)	8 µg/mL (≈ 19.9 µM)	64 µg/mL (≈ 159 µM)	16 µg/mL (≈ 39.8 µM)	8 µg/mL (≈ 19.9 µM)	16 µg/mL (≈ 39.8 µM)	32 µg/mL (≈ 79.5 µM)	> 128 µg/mL	16 µg/mL (≈ 39.8 µM)	16 µg/mL	0.5 µg/mL (≈ 1.24 µM)	16 µg/mL (≈ 39.8 µM)	0.25 µg/mL (≈ 0.621 µM)	16 µg/mL (≈ 39.8 µM)	> 128 µg/mL	MIC (Strep. D; strain X66): 64 µg/mL (≈ 159 µM); MIC (Shig. sonn.): 32 µg/mL (≈ 79.5 µM)
